This passage reports IC50 results from patent publication US11478474B2, “2-(3′-(hydroxymethyl)-1-methyl-5-((5-(2-methyl-4-(oxetan-3-yl)piperazin-1-yl)pyridin-2-yl)amino)-6-oxo-1,6-dihydro-[3,4′-bipyridin]-2′-yl)-7,7-dimethyl-7,8-dihydro-2H-cyclopenta[4,5]pyrrolo[1,2-a]pyrazin-1(6H)-one as a BTK inhibitor” (HUTCHISON MEDIPHARMA LIMITED, priority 2020, dated 2022).

pIC50: −log10 of the molar value.

The target in test [1] is BTK recombinant protein (Homo sapiens (Human), UniProt Q06187). Description: Determination of biochemical BTK (Z'-LYTE kinase assay). The text has this: Example 2 Determination of Biochemical BTK
Sequence of BTK recombinant protein (Q06187 whole entry): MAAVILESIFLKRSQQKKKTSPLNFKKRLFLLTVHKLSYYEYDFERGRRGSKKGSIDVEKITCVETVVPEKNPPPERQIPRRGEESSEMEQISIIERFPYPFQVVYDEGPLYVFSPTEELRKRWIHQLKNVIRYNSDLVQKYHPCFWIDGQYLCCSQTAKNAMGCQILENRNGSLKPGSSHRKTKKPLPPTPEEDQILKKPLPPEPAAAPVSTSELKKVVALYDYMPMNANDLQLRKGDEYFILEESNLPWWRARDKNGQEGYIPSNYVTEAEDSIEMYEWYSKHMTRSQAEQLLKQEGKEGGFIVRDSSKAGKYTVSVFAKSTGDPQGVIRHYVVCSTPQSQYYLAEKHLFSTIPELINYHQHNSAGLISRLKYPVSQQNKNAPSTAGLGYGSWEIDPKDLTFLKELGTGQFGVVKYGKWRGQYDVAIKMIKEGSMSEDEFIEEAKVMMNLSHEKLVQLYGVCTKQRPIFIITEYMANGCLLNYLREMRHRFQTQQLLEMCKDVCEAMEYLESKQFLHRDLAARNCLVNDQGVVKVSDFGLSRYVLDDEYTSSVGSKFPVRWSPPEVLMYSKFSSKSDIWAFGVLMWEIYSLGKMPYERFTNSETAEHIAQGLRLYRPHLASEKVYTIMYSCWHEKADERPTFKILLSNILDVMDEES
(§1) 1. Reagents and Materials
BTK recombinant protein: Invitrogen, Cat #PV3363;
Z′-LYTE® kinase test kit-tyrosine 1 peptide: Invitrogen, Cat #PV3190;
Z′-LYTE® biochemical assay employs a fluorescence resonance energy transfer (FRET)—based, coupled-enzyme format and is based on the differential sensitivity of phosphorylated and non-phosphorylated peptides to proteolytic cleavage. Both ends of the short peptide substrate are labeled with two fluorescent groups to form a FRET paired combination. In the primary reaction (the Kinase Reaction), the kinase transfers the γ-phosphate of ATP to a single […] residue on the short peptide substrate. In the secondary reaction (the development reaction), the non-phosphorylated short peptides were recognized and cleaved by a site-specific protease (the development reagent). Phosphorylated short peptides can resist such cleavage. Cleavage of short peptides can disrupt the donor (such as coumarin) and receptor fluorophores (fluorescein) on the short peptides, while the phosphorylated short peptides can maintain FRET. The calculation method of the ratio is as follows, and the ratio of the respective emission signals generated by the donor fluorophores emitted (after excitation at 400 nm) to the receptors is calculated. Emission signal ratio=emitted light by coumarin (445 nm)/emitted light by fluorescein (520 nm). If the FRET short peptide is phosphorylated (such as no kinase inhibitor), the emitted light ratio will remain in a lower level. If the FRET short peptide is non-phosphorylated (such as kinase inhibitor), the emitted light ratio will be in a higher level. In this way, the inhibitory effects of different compound inhibitors on BTK kinase activity would be distinguished.
The experiment were carried out according to the instructions of the Z′-LYTE® kinase test kit-tyrosine 1 peptide. Reagent preparation: 1.33× kinase buffer: 5× kinase buffer was diluted with water to 1.33× kinase buffer; an enzyme solution: the kinase was dissolved in 1.33× kinase buffer with the final working concentration being 3.32 nM; a short peptide solution: a short peptide stock solution (1 mM dissolved in DMSO) was dissolved in 1.33× kinase buffer with the final working concentration being 2 μM; Z′-LYTE Tyr01 phosphorylated short peptide solution, 0.6 μl of stock solution (1 mM dissolved in DMSO) was dissolved in 149.4 μl of 1.33× kinase buffer; an ATP solution: an ATP stock solution (10 mM aqueous solution) was dissolved in 1.33× kinase buffer with the final working concentration being 32 μM; a color-developing solution: color-developing solution B was dissolved in color-developing buffer with the final working concentration being 1× color-developing solution; 4× compound preparation: the compound was diluted in 3-fold gradient concentration to finally obtain 4% DMSO aqueous solution containing different concentrations of the compound, with the final working concentration being 3000, 1000, 333.33, 111.11, 37.04, 12.35, 4.12, 1.37 nM, 8 concentration points in total.
Specific steps of the experiment: In the experiment, there were three control groups, each with 8 replicate wells, which were C1 100% inhibition group (no ATP), C2 0% inhibition group (with ATP), and C3 100% phosphorylation group, respectively. 2.5 μl of serially diluted compound was added to each well of a 384-well plate, with double replicate wells, and 4% DMSO solution was added to wells C1, C2, and C3. After that, except for wells C3, 2.5 μl of BTK enzyme solution was added to each remaining well, which was left to stand at 4° C. for 30 minutes. After that, except for wells C3, 2.5 μl of short peptide solution was added to each well, and 5 μl of phosphorylated short peptide solution was added to each of wells C3. 2.5 μl of 1.33× kinase buffer was added to each of wells C1 and C3, and 2.5 μl of ATP solution was added to each of the remaining wells. […]

Test [2] deals with phosphorylated BTK in Ramos cells (Homo sapiens (Human), UniProt Q06187). Description: Determination of phosphorylated BTK in Ramos cells (BTK phospho-Y223 HTRF). In kind it is cell-based. As to conditions: anti-human IgM + hydrogen peroxide stimulation. As for the experimental part: Determination of Phosphorylated BTK in Ramos Cells
Sequence of phosphorylated BTK in Ramos cells (Q06187 whole entry): as above
as §1
Ramos cells: Ramos cells were purchased from American Standard Biological Collection Center ATCC Cell Bank, PRMI 1640 medium containing L-glutamine, 1.5 g/L of sodium bicarbonate, 2.383 g/L of HEPES solution, 0.11 g/L of sodium pyruvate and 4.5 g/L of glucose was used, added 10% fetal bovine serum FBS, and placed in a 5% CO2, 37° C. cell incubator for normal culture;
Phosphorylated BTK HTRF detection kit (BTK phospho-Y223 HTRF kit): Cisbio, Cat #63ADK017PEH;
Ramos cells were starved in PRMI 1640 medium with 1% FBS for 2 hours. The starved Ramos cells were diluted with Hank's balanced salt solution to 5.0×10^6 cells/ml, seeded in a 96-well plate with 20 μL/well (1.0×10^5 cells/well), and cultured in a 5% CO2, 37° C. cell incubator. After culturing for 1 hour, the test compound was diluted with Hank's balanced salt solution in 4-fold gradient to the corresponding concentrations, and then 5 μL/well of the diluted test compound with different concentrations (the final concentrations of the test compound were 3.0, 0.75, 0.188, 0.047, 0.012, 0.0029, 0.0007 and 0.00018 μM, and the final concentration of DMSO was 0.3%, double replicate wells) or 5 μL/well of control solution (1.5% DMSO, 8 replicate wells) were added to 20 μL/well of cell culture system, which incubated together for another hour, then 5 μL/well of a mixed solution of human immunoglobulin M (final concentration was 10 μg/mL) and hydrogen peroxide (final concentration was 3.3 mM) diluted with Hank's balanced salt solution was added to the treating wells for the test compound and the control treating wells for anti-human immunoglobulin M, and 5 μL/well of Hank's balanced salt solution was added to negative control treating wells. The plate was incubated in a 5% CO2, 37° C. cell incubator for 10 minutes.
10 μL/well of cell lysis buffer was added to each well of a 96-well plate, which was mixed well and lysed at room temperature for 30 minutes. 16 μL/well of lysis buffer was pipetted to a new 384 well plate, and then added 4 μL/well of phosphorylated BTK antibody, centrifuged (1000 rpm) for 1 minute, then shaken for 1 minute, further centrifuged (1000 rpm) for 1 minute, and finally placed in a constant temperature incubator overnight. Detection was performed on the next day.
The 384 well plate incubated overnight in the constant temperature incubator was taken out to detect the luminescence signal using the Envision microwell plate reader at the […]. The reading value at 665 nm/615 nm of each well multiplied by 104 was used as the signal value of each well.
The average signal value of the wells supplemented with the mixed solution of human immunoglobulin M (final concentration was 10 μg/mL) and hydrogen peroxide (final concentration was 3.3 mM) without the test compound was regarded as the high value, and the average signal value of the wells without immunoglobulin M stimulation and without the test compound was regarded as the low value. According to the signal value in each well, the inhibition ratio (%) of each concentration of compounds was calculated, and the 205 model in XL-Fit 5.3 software (ID Business Solutions Limited) was used to obtain an IC50 value.
The inhibition ratio is calculated as follows: inhibition ratio (%)=100%−{(treating well for the test compound−negative control treating well)/(control treating well for anti-human immunoglobulin M−negative control treating well)}×100%, wherein,
Treating well for the test compound: represents the signal value of Ramos cells treated with anti-human immunoglobulin M, hydrogen peroxide and the test compound.
Control treating well for anti-human immunoglobulin M: represents the signal value of Ramos cells treated with anti-human immunoglobulin M, hydrogen peroxide but without the test compound. […]
A general note: In TR-FRET formats the signal depends on donor and acceptor labels being close together.

`Cn1cc(-c2ccnc(-n3ccn4c5c(cc4c3=O)CC(C)(C)C5)c2CO)cc(Nc2ccc(N3CCC4C3CCN4C3COC3)cn2)c1=O` (stereo not drawn) [Compound 109]: the results for the pIC50 in test [1] and in test [2] were 7.70 and 8.40, respectively.
In the case of `COCCN1CCn2nc(Nc3cc(-c4ccnc(-n5ccn6c7c(cc6c5=O)CCC7)c4CO)cn(C)c3=O)cc2C1` [Compound 148], the pIC50 – broadly, the negative decadic logarithm of the IC50, by convention in mol/L – in test [1] was 6.95.
On the same count and under the same terms, then `CC(O)c1c(-c2cc(Nc3ccc(N4CCN(C5COC5)C[C@@H]4C)cn3)c(=O)n(C)c2)ccnc1-n1ccn2c3c(cc2c1=O)CC(C)(C)C3` (mixture of isomers) [Compound 114], with below 5.52; and `CCn1cc(Nc2cc(-c3ccnc(-n4ccn5c6c(cc5c4=O)CCC6)c3CO)cn(C)c2=O)nn1` [Compound 138], with 6.66.
Turning to `CN1CCn2nc(Nc3cc(-c4ccnc(-n5ccn6c7c(cc6c5=O)CC(C)(C)C7)c4CO)cn(C)c3=O)cc2C1` [Compound 69, 2-(3′-(hydroxymethyl)-1-methyl-5-((5-methyl-4,5,6,7-tetrahydropyrazolo[1,5-a]pyrazin-2-yl)amino)-6-oxo-1,6-dihydro-[3,4′-bispyridin]-2′-yl)-7,7-dimethyl-7,8-dihydro-2H-cyclopenta[4,5]pyrrolo[1,2-a]pyrazin-1(6H)-one], the pIC50 in test [2] was 8.70.
On to `Cc1ccc(Nc2cc(-c3ccnc(-n4ccn5c6c(cc5c4=O)CCC6)c3CO)cn(C)c2=O)nn1` [Compound 147], for which, in test [1], the pIC50 was 5.81.
`COCCN1CCn2nc(Nc3cc(-c4ccnc(-n5cnn6c7c(cc6c5=O)CCCC7)c4CO)cn(C)c3=O)cc2C1` [Compound 194]: the pIC50 in test [1] was 7.19.
Same read-out and setting: then `COc1ccc(Nc2cc(-c3ccnc(-n4ccn5c6c(cc5c4=O)CCC6)c3CO)cn(C)c2=O)nc1` [Compound 146], with 6.20; and `[2H]C(O)c1c(-c2cc(Nc3ccc(N4CCN(C5COC5)C[C@@H]4C)cn3)c(=O)n(C([2H])([2H])[2H])c2)ccnc1-n1ccn2c3c(cc2c1=O)CC(C)(C)C3` (stereo partly drawn) [Compound 38], with above 9.00.
`COCC(C)n1cc(Nc2nc(-c3ccnc(-n4ccn5c6c(cc5c4=O)CC(C)(C)C6)c3CO)cn(C)c2=O)nn1` (stereo not drawn) [Compound 42]: in test [2], the pIC50 is 6.47.
In the case of `C[C@@H]1CN(c2ccc(Nc3cc(-c4ccnc(-n5ccn6c7c(cc6c5=O)CC(C)(C)C7)c4CO)nn(C)c3=O)nc2)[C@@H](C)CN1C1COC1` [Compound 201], the pIC50 in test [1] is 8.30.
Same read-out and setting: the figure for `Cn1cc(-c2ccnc(-n3ccn4c5c(cc4c3=O)CCC5)c2CO)cc(Nc2cc3n(n2)CCOC3)c1=O` [Compound 155] is 6.91; for `Cn1cc(-c2ccnc(-n3ccn4c5c(cc4c3=O)CC(C)(C)C5)c2CO)cc(N)c1=O` [Compound 98, 2-(5-amino-3′-(hydroxymethyl)-1-methyl-6-oxo-1,6-dihydro-[3,4′-bispyridin]-2′-yl)-7,7-dimethyl-7,8-dihydro-2H-cyclopenta[4,5]pyrrolo[1,2-a]pyrazin-1(6H)-one] it is 5.90.
The same measure, in the same setting: the figure for `Cn1cc(-c2ccnc(-n3ccn4c5c(cc4c3=O)CC(C)(C)C5)c2CO)cc(NC(=O)C2CCC2)c1=O` [Compound 130] is 6.50; for `CCC(=O)Nc1cc(-c2ccnc(-n3ccn4c5c(cc4c3=O)CC(C)(C)C5)c2CO)cn(C)c1=O` [Compound 88] it is 6.87.
On to `COCc1cc(Nc2cc(-c3ccnc(-n4ccn5c6c(cc5c4=O)CCC6)c3CO)cn(C)c2=O)nn1C` [Compound 153], for which the pIC50 in test [1] was 6.93.
Take `C[C@H]1COCCN1c1cnc(Nc2cc(-c3ccnc(-n4ncn5c6c(cc5c4=O)CC(C)(C)C6)c3CO)cn(C)c2=O)nc1` [Compound 195]: the pIC50 in test [1] was 7.42.
The same measure, in the same setting: then `COCc1c(-c2cc(N(C)c3ccc(N4CCN(C5COC5)C[C@@H]4C)cn3)c(=O)n(C)c2)ccnc1-n1ccn2c3c(cc2c1=O)CC(C)(C)C3` [Compound 223, (S)-2-(3′-(methoxymethyl)-1-methyl-5-(methyl(5-(2-methyl-4-(oxetan-3-yl)piperazin-1-yl)pyridin-2-yl)amino)-6-oxo-1,6-dihydro-[3,4′-bispyridin]-2′-yl)-7,7-dimethyl-7,8-dihydro-2H-cyclopenta[4,5]pyrrolo[1,2-a]pyrazin-1(6H)-one], with below 5.52.
Same read-out and setting: the figure for `C[C@H]1CN(C2COC2)CCN1c1cnc(Nc2cc(-c3ccnc(-n4ncn5c6c(cc5c4=O)CC(C)(C)C6)c3CO)cn(C)c2=O)nc1` [Compound 197] is 7.18; for `Cc1nn(-c2nccc(-c3cc(Nc4ccc(N5CCN(C6COC6)C[C@@H]5C)cn4)c(=O)n(C)c3)c2CO)c(=O)c2cc3c(n12)CCCC3` [Compound 158] it is 6.71.
Still for that read-out and setting: then `C[C@H]1CN(C2COC2)CCN1c1ccc(Nc2cc(-c3ccnc(-n4ccn5c6c(cc5c4=O)CC(C)(C)C6)c3CO)cn(C)c2=O)c(F)c1` [Compound 103], with below 5.52; and `COC1CN(c2ccc(Nc3cc(-c4ccnc(-n5ccn6c7c(cc6c5=O)CCC7)c4CO)cn(C)c3=O)nc2)C1` [Compound 152], with 6.45; and `Cn1cc(-c2ccnc(-n3ccn4c5c(cc4c3=O)CC(C)(C)C5)c2CO)cc(NC(=O)c2ccccc2)c1=O` [Compound 131], with 5.70.
